Legend:
KRAS G13D = KRAS G13D (Homo sapiens, UniProt P01116, G13D); experiment: SOS-catalyzed nucleotide exchange assay, KRAS G13D (Procedure A); type: biochemical; settings: GNE
Procedure, shortened: (§1)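 Compounds in 10-point 3-fold series sat 60 min with biotin-KRAS/Bodipy-GDP/Tb-streptavidin complex, then human SOS and 3 mM GTP were added. G13D: 1.25 nM KRAS, no SOS, 30 min. WT and G12D: 1 nM with 40 nM SOS, 60 min. G12C (C51S/C80L/C118S): 3 nM/40 nM, 60 min. Curves fitted from normalised TR-FRET 520/495 ratio.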

KRAS G12V = KRAS G12V (Homo sapiens, UniProt P01116, G12V); experiment: SOS-catalyzed nucleotide exchange assay, KRAS G12V (Procedure A); type: biochemical; settings: GNE
Procedure, shortened: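 Biotinylated KRAS G12V was loaded with Bodipy-GDP alongside Terbium-streptavidin to form a TR-FRET complex, which was preincubated with compounds for 60 minutes in 384-well plates. Human SOS protein and unlabeled GTP were then added for 90 minutes, giving final concentrations of 1.25 nM KRAS-G12V, 160 nM SOS and 3 mM GTP. The 520/495 nm emission ratio was read on an Envision.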

KRAS G12C = KRAS G12C (Homo sapiens, UniProt P01116, C118S/C51S/C80L/G12C); experiment: SOS-catalyzed nucleotide exchange assay, KRAS G12C (Procedure A); type: biochemical; settings: GNE
Procedure, shortened: as §1

KRAS G12D = KRAS G12D (Homo sapiens, UniProt P01116, G12D); experiment: SOS-catalyzed nucleotide exchange assay, KRAS G12D (Procedure A); type: biochemical; settings: guanine nucleotide exchange (GNE)
Procedure, shortened: as §1

NRAS = NRAS (Homo sapiens, UniProt P01111); experiment: SOS-catalyzed nucleotide exchange assay, NRAS (Procedure A); type: biochemical; settings: GNE
Procedure, shortened: (§2)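 60 min cpd preinc. w/ RAS–Bodipy-GDP–Tb-SA complex; + hSOS/GTP (3 mM final), RT. G12C 3 nM RAS/40 nM SOS; WT, G12D 1 nM/40 nM; 60 min rxn. G13D 1.25 nM, no SOS, 30 min rxn. HEPES pH 7.5, 10 mM MgCl2. Ratio 520/495, norm. to DMSO/max-inhibitor ctrls.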

HRAS = HRAS (Homo sapiens, UniProt P01112); experiment: SOS-catalyzed nucleotide exchange assay, HRAS (Procedure A); type: biochemical; settings: GNE
Procedure, shortened: as §2

AsPC-1 cells = target: T1, AsPC-1 cells (Homo sapiens, UniProt P01116, G12D); experiment: Cellular phospho-ERK assay, AsPC-1 cells (KRAS G12D); type: cell-based; settings: 2 hours, read-out: AsPC1 pERK IC50
T1 construct: p-ERK/total ERK AlphaSureFire read-out
Procedure, shortened: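 Compound was titrated 10-point in 3-fold steps (top 30 μM) on KRAS G12D homozygous pancreatic lines PANC08.13 and AsPC-1 for 2 h at 37 °C. The p-ERK/total ERK ratio was measured by multiplex AlphaLISA SureFire and fitted with a 4-parameter logistic model to give IC50.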

KRAS WT = KRAS WT (Homo sapiens, UniProt P01116); experiment: SOS-catalyzed nucleotide exchange assay, KRAS WT (Procedure A); type: biochemical; settings: GNE
Procedure, shortened: as §1

PANC08.13 cells = target: T2, PANC08.13 cells (Homo sapiens, UniProt P01116, G12D); experiment: Cellular phospho-ERK assay, PANC08.13 cells (KRAS G12D); type: cell-based; settings: 2 hours, read-out: PANCO 813 pERK IC50
T2 construct: p-ERK/total ERK AlphaSureFire read-out
Procedure: Procedure for Cellular Phospho-ERK Assay in KRAS Wild Type and Mutant (G12D, G12V) Cell Lines
PANC08.13 cells (ATCC® CRL-2551™), containing homozygous KRAS-G12D activating mutation, were cultured in growth medium made of RPMI1640-GlutaMAX™-I (ThermoFisher Scientific 61870) containing 15% heat inactivated fetal bovine serum (ThermoFisher Scientific 10091148)). AsPC-1 cells (ATCC® CRL-1682™), containing homozygous KRAS-G12D activating mutation, were cultured in T150 flask in growth medium (RPMI medium 1640-GlutaMAX™-I (ThermoFisher Scientific 61870) containing 10% fetal bovine serum (ThermoFisher Scientific 10091148)).
Cells for the assay were harvested in growth medium after TrypLE (ThermoFisher scientific 12604021) digestion and were seeded in a 384-well collagen coated cell culture plate (Corning 356702) at a density of 10,000-15,000 cells/20 μL/well, and incubated at 37° C., 5% CO2 overnight. The compound (with 10 mM stock concentration) dose-response titrations were prepared [30 μM final ERK detection assay concentration and 1:3 dilutions, 10-point dose response] and appropriate amounts (270 nL) of test compounds were dispensed in a 384-well intermediate plate using an Echo 550 liquid handler. 30 μL/well of RPMI medium 1640-GlutaMAX™-I was added to the intermediate plate and the contents of the intermediate plate (10 μL/well) were then transferred to the 384-well collagen coated cell culture plate, which was incubated at 37° C., 5% CO2 for 2 hours. After removal of medium from the collagen coated cell culture plate, cells were lysed in lysis buffer from Alpha SureFire® Ultra™ Multiplex p-ERK and total ERK assay kit (PerkinElmer MPSU-PTERK) containing Halt™ Protease and Phosphatase inhibitor cocktail (ThermoFisher Scientific 78446) at room temperature with constant shaking at 300 rpm for 30 minutes. The cell lysates were then transferred to an OptiPlate-384 plate (PerkinElmer 6005620), and the phosphorylation of ERK (p-ERK) and total ERK levels were detected by Alpha SureFire® Ultra™ Multiplex p-EEK kit and total ERK assay kit (PerkinElmer MPSU-PTERK) following the manufacturer's protocol. Assay plates were read on a EnVision Multimode Plate Reader (PerkinElmer), and the ratio of p-ERK vs. total ERK in each well was used as the final readout. Dose response curves were analyzed using a 4-parameter logistic model to calculate IC50 values using Spotfire software.

Sequence of KRAS G12D (P01116 with tags, fused parts or gaps isoform P01116-2 G12D): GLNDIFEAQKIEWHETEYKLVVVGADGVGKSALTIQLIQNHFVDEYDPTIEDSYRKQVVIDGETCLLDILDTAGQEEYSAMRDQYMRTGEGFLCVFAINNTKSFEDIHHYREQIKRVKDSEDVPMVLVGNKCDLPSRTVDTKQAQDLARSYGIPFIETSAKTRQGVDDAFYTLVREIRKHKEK
Sequence of KRAS G13D (P01116 with tags, fused parts or gaps isoform P01116-2 G13D): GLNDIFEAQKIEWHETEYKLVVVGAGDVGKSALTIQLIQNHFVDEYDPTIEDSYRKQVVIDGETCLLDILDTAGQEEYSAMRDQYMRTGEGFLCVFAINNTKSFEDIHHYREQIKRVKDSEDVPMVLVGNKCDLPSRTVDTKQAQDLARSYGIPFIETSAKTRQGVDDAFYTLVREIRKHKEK
Sequence of KRAS G12V (P01116 with tags, fused parts or gaps isoform P01116-2 G12V): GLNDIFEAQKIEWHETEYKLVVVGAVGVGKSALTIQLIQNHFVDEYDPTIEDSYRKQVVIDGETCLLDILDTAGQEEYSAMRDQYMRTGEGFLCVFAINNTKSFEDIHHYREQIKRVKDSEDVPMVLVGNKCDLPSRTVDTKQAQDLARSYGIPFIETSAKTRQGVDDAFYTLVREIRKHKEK
Sequence of KRAS WT (P01116 with tags, fused parts or gaps isoform P01116-2): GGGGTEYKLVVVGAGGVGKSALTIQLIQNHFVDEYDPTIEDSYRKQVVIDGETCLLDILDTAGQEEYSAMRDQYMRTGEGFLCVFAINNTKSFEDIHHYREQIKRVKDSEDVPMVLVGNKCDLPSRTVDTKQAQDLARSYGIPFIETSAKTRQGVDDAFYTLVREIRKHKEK
Sequence of NRAS (P01111 with tags, fused parts or gaps): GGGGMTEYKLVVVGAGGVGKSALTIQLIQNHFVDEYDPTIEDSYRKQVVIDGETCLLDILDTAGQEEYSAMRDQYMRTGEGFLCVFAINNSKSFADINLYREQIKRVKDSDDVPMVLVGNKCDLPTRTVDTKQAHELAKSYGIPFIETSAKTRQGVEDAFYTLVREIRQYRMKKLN
T2 sequence (P01116 1-188 isoform P01116-2 G12D): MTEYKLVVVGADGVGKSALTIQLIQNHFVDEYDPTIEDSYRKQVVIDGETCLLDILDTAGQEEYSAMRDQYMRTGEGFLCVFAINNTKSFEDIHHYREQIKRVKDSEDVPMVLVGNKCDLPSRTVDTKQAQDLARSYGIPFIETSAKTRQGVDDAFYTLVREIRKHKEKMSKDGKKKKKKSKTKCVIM
Sequence of HRAS (P01112 with tags, fused parts or gaps): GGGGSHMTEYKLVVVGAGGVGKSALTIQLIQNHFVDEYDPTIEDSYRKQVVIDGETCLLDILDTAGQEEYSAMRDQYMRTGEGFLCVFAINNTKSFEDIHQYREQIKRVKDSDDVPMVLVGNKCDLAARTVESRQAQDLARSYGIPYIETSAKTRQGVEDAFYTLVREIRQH
Sequence of KRAS G12C (P01116 with tags, fused parts or gaps isoform P01116-2 G12C/C51S/C80L/C118S): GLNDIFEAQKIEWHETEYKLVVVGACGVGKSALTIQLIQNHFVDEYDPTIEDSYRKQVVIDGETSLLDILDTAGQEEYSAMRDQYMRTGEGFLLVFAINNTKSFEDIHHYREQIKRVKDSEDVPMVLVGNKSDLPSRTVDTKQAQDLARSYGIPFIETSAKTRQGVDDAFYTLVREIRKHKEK
T1 sequence (P01116 1-188 isoform P01116-2 G12D): as the sequence (P01116 1-188 isoform P01116-2 G12D) above

SMILES | IC50 (KRAS G13D) | IC50 (KRAS G12V) | IC50 (KRAS G12C) | IC50 (KRAS G12D) | IC50 (NRAS) | IC50 (HRAS) | IC50 (AsPC-1 cells) | IC50 (KRAS WT) | IC50 (PANC08.13 cells)
C#Cc1cccc2cccc(-c3nccc4c5c(N6C[C@H]7CC[C@@H](C6)N7)nc(OC[C@@]67CCCN6C[C@H](F)C7)nc5n(C)c34)c12 [Ex-9, 4-((1R,5S)-3,8-diazabicyclo[3.2.1]octan-3-yl)-8-(8-ethynylnaphthalen-1-yl)-2-(((2R,7aS)-2-fluoro-tetrahydro-1H-pyrrolizin-7a(5H)-yl)methoxy)-9-methyl-9H-py-rido[4′,3′:4,5]pyrro-lo[2,3-d]pyrimidine] | 0.451 µM | – | 1.55 µM | 0.0407 µM | > 11.1 µM | > 11.1 µM | 0.49 µM | – | 0.315 µM
Nc1nc2c(-c3nccc4c3sc3nc(OC[C@@]56CCCN5C[C@H](F)C6)nc(N5C[C@H]6CC[C@@H](C5)N6)c34)c(F)cc(F)c2o1 [Ex-15, 4-(4-((1R,5S)-3,8-diazabicyclo[3.2.1]octan-3-yl)-2-(((2R,7aS)-2-fluorotetrahydro-1H-pyrrolizin-7a(5H)-yl)methoxy)pyrido[4′,3′:4,5]thieno [2,3-d]pyrimidin-8-yl)-5,7-difluorobenzo[d]oxazol-2-amine] | > 11.1 µM | > 11.1 µM | > 11.1 µM | 4.99 µM | > 11.1 µM | > 11.1 µM | – | > 11.1 µM | > 10 µM
N#Cc1c(N)sc2c(F)ccc(-c3nccc4c3sc3nc(OC[C@@]56CCCN5C[C@H](F)C6)nc(N5C[C@H]6CC[C@@H](C5)N6)c34)c12 [Ex-17, 4-(4-((1R,5S)-3,8-diazabicyclo[3.2.1]octan-3-yl)-2-(((2R,7aS)-2-fluorotetrahydro-1H-pyrrolizin-7a(5H)-yl)methoxy)pyrido[4′,3′:4,5]thieno [2,3-d]pyrimidin-8-yl)-2-amino-7-fluorobenzo[b] thiophene-3-carbonitrile] | > 11.1 µM | > 11.1 µM | > 11.1 µM | 0.024 µM | > 11.1 µM | > 11.1 µM | – | > 11.1 µM | 1.64 µM
Cc1cc2[nH]ncc2c(-c2nccc3c2sc2nc(OC[C@]4(CO)CC4(F)F)nc(N4C[C@H]5CC[C@@H](C4)N5)c23)c1C(F)(F)F [Ex-25, ((1R)-1-(((4-((1R,5S)-3,8-diazabicyclo[3.2.1]octan-3-yl)-8-(6-methyl-5-(trifluoromethyl)-1H-indazol-4-yl)pyrido[4′,3′:4,5]thieno[2,3-d]pyrimidin-2-yl)oxy)methyl)-2,2-difluorocyclopropyl)methanol] | > 11.1 µM | > 11.1 µM | > 11.1 µM | 1.02 µM | > 11.1 µM | > 11.1 µM | – | > 11.1 µM | 2.87 µM
Cn1c2nc(OC[C@]3(CO)CC3(F)F)nc(N3C[C@H]4CC[C@@H](C3)N4)c2c2ccnc(-c3ccc(F)c4sc(N)c(C#N)c34)c21 [Ex-62, 4-(4-((1R,5S)-3,8-diazabicyclo[3.2.1]octan-3-yl)-2-(((R)-2,2-difluoro-1-(hydroxymethyl)cyclopro-pyl)methoxy)-9-methyl-9H-pyrido[4′,3′:4,5]pyrrolo[2,3-d]pyrimidin-8-yl)-2-amino-7-fluorobenzo[b]thiophene-3-carbonitrile] | 1.54 µM | > 11.1 µM | 8.49 µM | 0.645 µM | > 11.1 µM | > 11.1 µM | – | > 11.1 µM | > 10 µM
Cn1c2nc(OC[C@]3(CO)CC3(F)F)nc(N3C[C@H]4CC[C@@H](C3)N4)c2c2ccnc(-c3c(F)cc(F)c4sc(N)c(C#N)c34)c21 [Ex-63, 4-(4-((1R,5S)-3,8-diazabicyclo[3.2.1]octan-3-yl)-2-(((R)-2,2-difluoro-1-(hydroxymethyl)cyclopro-pyl)methoxy)-9-methyl-9H-pyrido[4′,3′:4,5]pyrrolo[2,3-d]pyrimidin-8-yl)-2-amino-5,7-difluorobenzo[b]thiophene-3-carbonitrile] | > 11.1 µM | > 11.1 µM | > 11.1 µM | 0.0737 µM | > 11.1 µM | > 11.1 µM | – | > 11.1 µM | > 10 µM

Second part, the compound after the results:

IC50 (KRAS G13D) | IC50 (KRAS G12V) | IC50 (KRAS G12C) | IC50 (KRAS G12D) | IC50 (NRAS) | IC50 (HRAS) | IC50 (AsPC-1 cells) | IC50 (KRAS WT) | IC50 (PANC08.13 cells) | SMILES
1.64 µM | 3.56 µM | 0.652 µM | 0.0143 µM | > 11.1 µM | > 11.1 µM | 0.455 µM | 6.5 µM | 0.139 µM | Cc1cc2[nH]ncc2c(-c2nccc3c4c(N5C[C@H]6CC[C@@H](C5)N6)nc(OC[C@@]56CCCN5C[C@H](F)C6)nc4n(C)c23)c1C(F)(F)F (single isomer, unassigned) [Ex-1]
4.88 µM | > 11.1 µM | > 11.1 µM | 0.583 µM | > 11.1 µM | > 11.1 µM | – | > 11.1 µM | 3.97 µM | Cc1cc2[nH]ncc2c(-c2nccc3c4c(N5C[C@H]6CC[C@@H](C5)N6)nc(OC[C@]5(CO)CC5(F)F)nc4n(C)c23)c1C(F)(F)F [Ex-53, ((1R)-1-(((4-((1R,5S)-3,8-diazabicyclo[3.2.1]octan-3-yl)-9-methyl-8-(6-methyl-5-(trifluoromethyl)-1H-indazol-4-yl)-9H-pyrido[4′,3′:4,5]pyrrolo[2,3-d]pyrimidin-2-yl)oxy)methyl)-2,2-difluorocyclopro-pyl)methanol]
1.5 µM | > 11.1 µM | 1.69 µM | 0.202 µM | > 11.1 µM | > 11.1 µM | – | 6.33 µM | 1.26 µM | Cc1cc2[nH]ncc2c(-c2nccc3c4c(N5CC[C@H]6NCC[C@H]65)nc(OC[C@@]56CCCN5C[C@H](F)C6)nc4n(C)c23)c1C(F)(F)F [Ex-66, 2-(((2R,7aS)-2-fluorotetrahydro-1H-pyrrolizin-7a(5H)-yl)methoxy)-4-((3aR,6aR)-hexahydropyrrolo[3,2-b]pyrrol-1(2H)-yl)-9-methyl-8-(6-methyl-5-(trifluoromethyl)-1H-indazol-4-yl)-9H-pyrido[4′,3′:4,5]pyrrolo[2,3-d]pyrimidine]
> 11.1 µM | > 11.1 µM | > 11.1 µM | 0.728 µM | > 11.1 µM | > 11.1 µM | – | > 11.1 µM | 2.65 µM | Cc1cc2[nH]ncc2c(-c2nccc3c2oc2nc(OC[C@@]45CCCN4C[C@H](F)C5)nc(N4C[C@H]5CC[C@@H](C4)N5)c23)c1C(F)(F)F [Ex-78, 4-((1R,5S)-3,8-diazabicyclo[3.2.1]octan-3-yl)-2-(((2R,7aS)-2-fluorotetrahydro-1H-pyrrolizin-7a(5H)-yl)methoxy)-8-(6-methyl-5-(trifluoromethyl)-1H-indazol-4-yl)pyrido[4′,3′:4,5]furo[2,3-d]pyrimidine]

Source: US20260347372A1, “SMALL MOLECULE INHIBITORS OF KRAS G12D MUTANT” (MERCK SHARP & DOHME LLC, priority 2023, published 2026)
